Measured values reported in the supplement of paper PMC10307832.

Columns and labels:
Experiment in all cases: relative viability (nuclei count vs DMSO), 5 days (fraction); higher = more cells survive
AGI-6780 + Luminespib = compound: O=C(Nc1cccc(C(F)(F)F)c1)Nc1cc(S(=O)(=O)NC2CC2)ccc1-c1ccsc1 [AGI-6780] + CCNC(=O)c1noc(-c2cc(C(C)C)c(O)cc2O)c1-c1ccc(CN2CCOCC2)cc1 [Luminespib] (partner 0.01 µM)
Method in brief: (§1)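 Values are medians from duplicate plates. Each reflects relative viability, defined as the nuclei count of treated wells over that of vehicle wells. Lung cancer cell lines in 1536-well plates were pin-tool dosed one day after seeding with one drug alone or with a fixed anchor-drug dose plus five library-drug doses (not always all listed) in √10 steps, then fixed, stained and imaged at 4× after 5 days.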

AGI-6780 + Foretinib = compound: O=C(Nc1cccc(C(F)(F)F)c1)Nc1cc(S(=O)(=O)NC2CC2)ccc1-c1ccsc1 [AGI-6780] + COc1cc2c(Oc3ccc(NC(=O)C4(C(=O)Nc5ccc(F)cc5)CC4)cc3F)ccnc2cc1OCCCN1CCOCC1 [Foretinib] (partner 0.25 µM)
Method in brief: as §1

AGI-6780 + Tozasertib = compound: O=C(Nc1cccc(C(F)(F)F)c1)Nc1cc(S(=O)(=O)NC2CC2)ccc1-c1ccsc1 [AGI-6780] + Cc1cc(Nc2cc(N3CCN(C)CC3)nc(Sc3ccc(NC(=O)C4CC4)cc3)n2)n[nH]1 [Tozasertib] (partner 0.1 µM)
Method in brief: as §1

AGI-6780 + AZD7762 = compound: O=C(Nc1cccc(C(F)(F)F)c1)Nc1cc(S(=O)(=O)NC2CC2)ccc1-c1ccsc1 [AGI-6780] + NC(=O)Nc1cc(-c2cccc(F)c2)sc1C(=O)N[C@H]1CCCNC1 [AZD7762] (partner 0.2 µM)
Method in brief: as §1

| Cell Line | relative viability (AGI-6780 + Luminespib; first compound 0.08 µM) | relative viability (AGI-6780 + Luminespib; first compound 0.253 µM) | relative viability (AGI-6780 + Luminespib; first compound 0.8 µM) | relative viability (AGI-6780 + Luminespib; first compound 2.53 µM) | relative viability (AGI-6780 + Luminespib; first compound 8 µM) | relative viability (AGI-6780 + Foretinib; first compound 0.08 µM) | relative viability (AGI-6780 + Foretinib; first compound 0.253 µM) | relative viability (AGI-6780 + Foretinib; first compound 0.8 µM) | relative viability (AGI-6780 + Foretinib; first compound 2.53 µM) | relative viability (AGI-6780 + Foretinib; first compound 8 µM) | relative viability (AGI-6780 + Tozasertib; first compound 0.08 µM) | relative viability (AGI-6780 + Tozasertib; first compound 0.253 µM) | relative viability (AGI-6780 + Tozasertib; first compound 0.8 µM) | relative viability (AGI-6780 + Tozasertib; first compound 2.53 µM) | relative viability (AGI-6780 + Tozasertib; first compound 8 µM) | relative viability (AGI-6780 + AZD7762; first compound 0.08 µM) | relative viability (AGI-6780 + AZD7762; first compound 0.253 µM) | relative viability (AGI-6780 + AZD7762; first compound 0.8 µM) | relative viability (AGI-6780 + AZD7762; first compound 2.53 µM) | relative viability (AGI-6780 + AZD7762; first compound 8 µM) |
| --- | --- | --- | --- | --- | --- | --- | --- | --- | --- | --- | --- | --- | --- | --- | --- | --- | --- | --- | --- | --- |
| LOU-NH91 | 0.411 | 0.337 | 0.436 | 0.328 | 0.305 | 0.946 | 0.908 | 0.961 | 0.93 | 0.893 | 0.725 | 0.642 | 0.63 | 0.583 | 0.64 | 0.759 | 0.802 | 0.79 | 0.67 | 0.812 |
| LU99A | 0.229 | 0.258 | 0.235 | 0.223 | 0.277 | 0.915 | 0.813 | 0.874 | 0.633 | 0.738 | 0.237 | 0.275 | 0.294 | 0.237 | 0.299 | 0.404 | 0.422 | 0.45 | 0.345 | 0.421 |
| LXF-289 | 0.776 | 0.723 | 0.679 | 0.606 | 0.659 | 1 | 1 | 1.04 | 0.954 | 0.934 | 0.201 | 0.225 | 0.152 | 0.131 | 0.25 | 1.16 | 1.17 | 1.11 | 1.37 | 0.991 |
| NCI-H23 |  | 0.202 | 0.231 |  | 0.205 | 1.12 | 0.968 | 1.02 | 0.96 | 0.865 | 0.347 | 0.365 | 0.35 | 0.379 | 0.343 | 0.259 | 0.24 | 0.23 | 0.294 | 0.23 |
| NCI-H322M | 0.889 | 0.901 | 0.912 | 0.744 | 0.814 | 1.06 | 1.01 | 1.1 | 1.07 | 0.982 | 0.517 | 0.508 | 0.493 | 0.425 | 0.515 |  | 0.767 | 0.551 | 0.555 | 0.653 |
| NCI-H358 | 0.37 | 0.255 | 0.424 | 0.204 | 0.439 | 0.631 | 0.688 | 0.647 | 0.573 | 0.79 | 0.11 | 0.108 | 0.112 | 0.105 | 0.11 | 0.678 | 0.504 | 0.648 | 0.501 | 0.475 |
| NCI-H441 | 0.346 | 0.333 | 0.41 | 0.302 | 0.361 | 1.03 | 1.16 | 1.06 | 0.754 | 0.844 | 0.608 | 0.733 | 0.474 | 0.415 | 0.599 | 1.33 | 1.35 | 1.43 | 1.2 | 1.39 |
| NCI-H460 | 0.0337 | 0.0309 | 0.0296 | 0.0322 | 0.0345 | 0.98 | 1.04 | 1.04 | 0.998 | 0.991 | 0.537 | 0.453 | 0.491 | 0.349 | 0.176 | 0.444 | 0.671 | 0.684 | 0.726 | 0.564 |
| NCI-H596 | 1 | 0.995 | 0.982 |  | 1.09 | 0.978 | 1.01 | 0.788 |  | 1.06 | 0.839 | 0.898 | 0.725 |  | 0.983 | 1.18 | 1.06 | 1.1 | 0.891 | 1.01 |
| NCI-H647 | 0.0935 | 0.181 | 0.12 | 0.103 | 0.118 | 1.1 | 1.2 | 1.31 | 1.11 | 1.4 | 0.299 | 0.302 | 0.37 | 0.181 | 0.281 | 0.425 | 0.484 | 0.827 | 0.401 | 0.589 |
| NCI-H650 | 0.673 | 0.874 | 0.865 | 0.793 | 0.946 | 1.06 | 1.05 | 1.04 | 0.961 | 1.07 | 0.749 | 0.747 | 0.72 | 0.642 | 0.7 | 0.81 | 1.05 | 1.24 | 0.92 | 1.07 |
| NCI-H727 | 0.322 | 0.545 | 0.347 | 0.287 | 0.468 | 1.07 | 0.982 | 0.98 | 0.626 | 1.02 | 0.583 | 0.568 | 0.669 | 0.722 | 0.681 | 0.45 | 0.536 | 0.65 | 0.589 | 0.749 |
| NCI-H838 | 0.374 | 0.353 | 0.339 | 0.303 | 0.274 | 1.13 | 1.02 | 0.987 | 0.895 | 1.02 | 0.321 | 0.244 | 0.295 | 0.276 | 0.224 | 0.988 | 0.903 | 0.919 | 0.932 | 0.909 |
| NCI-H1355 | 0.75 | 0.791 | 0.686 | 0.408 | 0.624 | 0.956 | 0.98 | 1.06 | 0.911 | 1.04 | 0.594 | 0.575 | 0.562 | 0.41 | 0.45 | 0.792 | 0.812 | 0.769 | 0.663 | 0.655 |
| NCI-H1395 | 1.02 | 0.78 | 0.73 | 0.646 | 0.615 | 0.917 | 0.986 | 0.979 | 0.901 | 0.931 | 0.778 | 0.774 | 0.893 | 0.666 | 0.674 | 0.366 | 0.4 | 0.412 | 0.428 | 0.387 |
